From patent US20130149757A1 (OPTINOL, INC., priority 2011, published 2013)

Assays:
[1] = test system: strains of C. saccharoperbutylacetonium; conditions: Keis et al, 2001; cited from earlier work
[2] = Liquid-liquid extraction with corn oil (Karr extractor); format: physicochemical
Procedure: Two runs were conducted, each with a different flow rate.

[3] = test system: C. saccharoperbutylacetonium N1-504; conditions: cited from earlier work
Novel organism = test: Carbohydrate utilization screen; format: cell-based, Clostridium beijerinckii sp. optinoii
Excerpt: A full carbohydrate screen was run to test whether the organism is actually N1-504. […] Rather it falls closer to (but is not identical with) C. beijerinckii.

[4] = test system: C. saccharoperbutylacetonium; conditions: reported (Keis et al.); cited from earlier work
bacterial cells = conditions: cited from earlier work

Row | Compound | Carbohydrate utilization, strains of C. saccharoperbutylacetonium generally [1] | also measured
1 | O=C[C@@H](O)[C@H](O)[C@H](O)CO [Arabinose] | will utilize | 
2 | O=C[C@H](O)[C@@H](O)[C@H](O[C@@H]1O[C@H](CO)[C@@H](O)[C@H](O)[C@H]1O)[C@H](O)CO [Cellobiose] | will utilize | 
3 | CC(C)O [Isopropanol, isopropanol] |  | % extraction, Run 1 ([2]; flow rate feed 26 ml/min): 23.0%; % extraction, Run 2 ([2]; flow rate feed 39 ml/min): 21.5%; extraction in this set up ([2]; summary comment): about 21%
4 | OC[C@@H](O)[C@@H](O)[C@H](O)[C@@H](O)CO [Sorbitol] |  | Carbohydrate utilization, C. saccharoperbutylacetonium N1-504 [3]: will not utilize
5 | O=C[C@H](O)[C@@H](O)[C@H](O)CO [Xylose] | will utilize | Carbohydrate utilization, Novel organism (Novel organism): does not grow
6 | OC[C@@H](O)[C@H](O)[C@H](O)[C@@H](O)CO [dulcitol] |  | Carbohydrate utilization, C. saccharoperbutylacetonium N1-504 [3]: will not utilize
7 | O[C@H]1[C@H](O)[C@@H](O)[C@H](O)[C@@H](O)[C@H]1O [inositol] |  | Carbohydrate utilization, C. saccharoperbutylacetonium N1-504 [3]: will not utilize
8 | OC[C@H]1O[C@@H](O[C@H]2[C@H](O)[C@@H](O)C(O)O[C@@H]2CO)[C@H](O)[C@@H](O)[C@H]1O (stereo partly drawn) [lactose] | will utilize | 
9 | OC[C@H]1O[C@H](O[C@H]2[C@H](O)[C@@H](O)[C@H](O)O[C@@H]2CO)[C@H](O)[C@@H](O)[C@@H]1O [maltose] | will utilize | 
10 | CO[C@H]1/C=C/O[C@@]2(C)Oc3c(C)c(O)c4c(O)c(c(/C=N/N5CCN(C)CC5)c(O)c4c3C2=O)NC(=O)/C(C)=C\C=C\[C@H](C)[C@H](O)[C@@H](C)[C@@H](O)[C@@H](C)[C@H](OC(C)=O)[C@@H]1C [rifampin] |  | resistance / inhibition of the organism [4]: resistant
11 | OC[C@H]1O[C@@](CO)(O[C@H]2O[C@H](CO)[C@@H](O)[C@H](O)[C@H]2O)[C@@H](O)[C@@H]1O [sucrose] | will utilize | 
12 | dextrin | will utilize | 
13 | glycogen | will utilize | 
14 | inulin | will utilize | 
15 | n-butanol |  | inhibits growth (bacterial cells; […] butanol): ~100%; inhibits cell growth and fermentation (bacterial cells; butanol at a concentration of 1 percent): about 20%
16 | pectin | will utilize | 
17 | starch | will utilize | 
